Laboratory results published in patent publication US20130236568A1, “PHOSPHAPLATINS HAVING ANTI-ANGIOGENIC, ANTI-METASTATIC, AND PRO-APOPTOTIC PROPERTIES AND USES THEREOF” (Ohio University, priority 2011, published 2013).

Assays:
[1] = tested on: yeast deletion collection; test: Genome-wide fitness assay in yeast (pooled deletion strains); assay type: cell-based; settings: for Sensitivity of DNA damage/repair genes (NER, HRR, PRR): phosphaplatins at 200 μM final concentration
From the text: The around 6000 strains in the yeast deletion collection can be studied in a single culture by using a microarray to detect the 20 bp DNA “barcodes” or “tags” contained in each strain. Barcode intensities are compared across time-points or across conditions to analyze the relative fitness of each strain. This development of the pooled fitness assay has greatly facilitated the functional annotation of the yeast genome by making genome-wide gene-deletion studies faster and easier, and has led to the development of high throughput methods for studying drug action in yeast. Pooled screens can be used for identifying gene functions, measuring the functional relatedness of gene pairs in order to group genes into pathways, identifying drug targets, and determining a drug's mechanism of action. This process involves five main steps: preparing aliquots of pooled cells, pooled growth, isolation of genomic DNA and PCR amplification of the barcodes, array hybridization (or next generation sequencing), and data analysis.
The pooled fitness assay involves five main steps (FIG. 3). First, the deletion collection is grown on solid media in arrayed format and the resulting cells are pooled and frozen to make cell aliquots that will be used for starting growth experiments. Cells are then grown in the desired conditions, typically for 5 to 20 generations. The barcodes from the resulting cell samples are prepared for hybridization by isolation of the genomic DNA and PCR amplification of the barcodes. The barcodes are amplified in two reactions to prevent crosstalk between the uptag and downtag primers. The resulting PCR products are then hybridized to tag arrays with one array needed per cell sample. Data is then analyzed to determine differences in strain representation between pairs of samples.
To analyze the genome wide effects of pyrodach-2 and -4, we screened 2 collections of strains, 1200 essential genes as heterozygote deletion mutants (reducing functional gene dose from 2 to 1) and 4800 non-essential genes as complete deletions (reducing functional gene dose from 2 to 0). Both compounds were screened at the highest dose possible (200 μM final concentration) to increase the likelihood of finding compound-specific sensitive strains.
Fitness profiling of pooled deletion strains involves […] main steps: • 1. Strains are first pooled at approximately equal abundance. • 2. The pool is grown competitively in the condition of choice and a control condition. If a gene is sensitive to the treatment condition, the strain carrying this deletion will grow more slowly and become under-represented relative to the control culture (purple strain). Resistant strains will grow faster and become over-represented (not shown). • 3. Genomic DNA is isolated from cells harvested at the end of pooled growth, and barcodes are amplified from the genomic DNA with universal primers. • 4. PCR products are then hybridized to an array that detects the tag sequences, giving tag intensities for the two samples. • 5. The treatment and control sample are then compared to determine the relative fitness of each strain. Note that only the purple strain is described as sensitive to the condition. While the red strain grows more slowly than the blue strain in the treatment, this growth difference in not of interest because it matches that seen in the control.

VEGFR2 gene [2] = test: Quantitative real-time PCR, VEGFR2 gene expression in A2780/C30 cells; assay type: cell-based, human; settings: A2780/C30 (cisplatin-resistant); positive = manifold increase, negative = relative decrease vs untreated cells; cisplatin 7 μM, pyrodach-4 180 μM
Procedure: (§1) Evaluations of selected gene expressions in Human Umbilical Vein Endothelial Cells (HUVEC) and Human Ovarian Cancer Cells by quantitative reverse transcriptase polymerase chain reaction (PCR)
(§2) Quantitative real-time PCR experiments were performed to estimate the expression of a selection of targeted genes. HUVEC cells (Lonza Walkersville, Frederick, Md.) were cultured on 0.1% gelatin-coated petri dishes by following standard protocols recommended by the vendor in a humidified incubator by maintaining 5% CO2 at 37° C. Human epithelial ovarian cancer cells (A2780) and cisplatin-resistant cells (A2780/C30) were cultured in RPMI 1640 with or without cisplatin (7 μM) and pyrodach-4 (180 μM) for 0, 3, 12 and 24 hours. […] HUVECs were treated with or without cisplatin (7 μM) or pyrodach-4 (90 or 180 μM) for various durations ranging from 1 hr. to 6 hrs.
(§3) Both treated and untreated cancer cells were maintained in RPMI 1640 medium with 10% fetal bovine serum, 2 μmol L-glutamine, 100 units/mL penicillin-streptomycin and 0.25 units/mL insulin solution, at 37° C. with 5% CO2. RNA was isolated from both the treated and untreated cells. […] The quantity and purity of RNA were determined by UV spectroscopy (NanoDrop 2000 Thermo Scientific, Wilmington, Del.). A minimum absorbance ratio index (ratio of the absorbance measured at 260 nm over that at 280 nm) of 1.9 was used as an acceptable purity. […] The target gene was labeled with a blue dye (FAM, absorbance: 494 nm, emission: 518 nm) while the reference gene was tagged with a green dye (VIC, absorbance: 538 nm, emission: 554 nm). The cDNA concentrations were selected such that the threshold cycle (Ct) values for the target genes were between 17 and 32, most sensitive for the fluorescence detection by ABI StepOnePlus™ instrument used for the measurements.
(§4) The threshold cycle number (Ct), the point at which the fluorescence of the qPCR reaction just exceeds the threshold fluorescence of the detection system, was determined. […]

A2780/C30 cells = test: Cell death detection assay with ELISA, A2780/C30 cells; assay type: cell-based, human; settings: 7 μM cisplatin or 180 μM D4
Procedure: In these experiments, ovarian cancer cells were treated with pyrodach-4 in the presence and absence of inhibitors PFT-α (an inhibitor p53) and LY29400 (an inhibitor of PI3K).
The different treatment groups from left to right are: control, 7 μM cisplatin, Con+PFT-α, 180 μM D4, 180 μM D4+PFT-α, 180 μM D4+LY294002. Apoptosis was quantified using the Cell Death Detection ELISA from Roche.
A2780 and A2780/C30 cells were grown in monolayers, trypsinized and suspended in supplemented RPMI 1640 media as described in Example 5. All the treatments on the Fc/A2780 and Fc/A2780/C30 cell samples were carried out in triplicate. The ELISA was performed according to the manufacturer's instructions. Briefly, 50,000 cells were plated for each treatment and the cells were allowed to adhere for 4-6 hours. Cells were then either incubated with media alone (untreated sample) or with pyrodach-4 or cisplatin in the concentrations indicated above. DNA of the treated and untreated cells was assayed for nucleosomal DNA using the ELISA kit (purchased from Roche Diagnostics, Mannheim, Germany). The cells were lysed for 30 minutes using the lysis buffer. After centrifuging, 10% (v/v) supernanant was incubated with anti-histone-biotin and anti-DNA-peroxidase. After two hour incubation, the pellets were washed three times and incubated with the substrate solution. The absorbances were measured at 405 and 490 nm for each treatment type using SPECTRA Max M2 multichannel fluorescence plate reader (Molecular Devices, Sunnyvale, Calif.). The absorbances of the treated samples were normalized to the substrate solution.

VEGFR2 gene [3] = test: Quantitative real-time PCR, VEGFR2 gene expression in A2780 cells; assay type: cell-based, human; settings: A2780 (cisplatin-sensitive); positive = manifold increase, negative = relative decrease vs untreated cells; cisplatin 7 μM, pyrodach-4 180 μM
Procedure: as §1, §2, §3, §4

[4] = yeast deletion strains, 200 μM final concentration

| Structure (SMILES) | Tolerability by the yeast cell (few sensitive strains) ([1]; highest dose possible, 200 μM final concentration) | Compound-specific sensitive strain [1, 4] | Functions enriched among sensitive strains [1, 4] | Sensitivity of DNA damage/repair genes (NER, HRR, PRR) ([1]; yeast deletion strains) | Normalized expression of VEGFR2 gene (VEGFR2 gene [2]) | Apoptotic cell death (ELISA absorbance) (A2780/C30 cells) | Normalized expression of VEGFR2 gene (VEGFR2 gene [3]) |
| --- | --- | --- | --- | --- | --- | --- | --- |
| NC1CCCCC1N.O=P([O-])(O)OP(=O)([O-])O.[Pt+2] (racemic) [pyrodach-2, trans-(±)-1,2-cyclohexanediamine(pyrophosphato) platinum(II)] | well tolerated by the cell | induced sensitivity in the strain avo2 | 1) iron and copper transport and 2) metal-regulated transcription factors | not a single gene involved in DNA repair or other DNA metabolic processes showed any sensitivity as a mutant | – | – | – |
| N.N.[Cl][Pt][Cl] [Cisplatin, cisplatin, reference compound] | – | – | – | induced expression of those genes related to the DNA response | 2.0 | insignificant increase in absorbance | 2.5 |
